Data taken from article PMC10683482, “Offsetting Low-Affinity Carbohydrate Binding with Covalency to Engage Sugar-Specific Proteins for Tumor-Immune Proximity Induction” (ACS Central Science, 2023).

Experiments:
anti-23F antibody [1] = assay: Mass spectrometry study of anti-23F labelling; type: binding, human; details: 10 µM cARM, 2.7 µM anti-23F, 45 hours
Method: To further confirm selectivity, an MS study was conducted to determine the site of labeling (Figures S10 and S11). […] No other labeling site was detected on the light chain; however, the lability of the SO2F-serine/tyrosine linkage to MS sample preparation protocols likely limited complete labeling site coverage. […] Due to the low labeling efficiency of rhamnose-AI-cARM, no labeling site could be identified. […] Determining the selectivity for antirhamnose antibodies in the presence of off-target cell surface proteins will be the focus of future in vivo studies.
Mass Spectrometry Study – Anti-23F Labelling
Anti-23F (2.7 µM) was incubated with 10 µM of Biotin-AI-cAR M 4 or Biotin-SO2F-cAR M 12, or PBS (antibody only) for 45 hours before MS analysis. Analysis was completed by Bioinformatics Solutions
Inc. Briefly, for intact protein analysis each sample was treated with PNGase F to remove glycans followed by LC-MS analysis. To determine site of labelling, each sample was digested with tryspin, chymostrypsin, and pepsin then analyzed by LC-MS/MS on a timsTOF Pro. Peptide spectra were mapped to a known antibody sequence (anti -23F antibody, Creative Biolabs - PABX-173). No labelling was identified with acyl imidazole containing cARM 4. […]
approxima tely 30% labelling post MS protocol (Figure S11)
Figure S10. Sample analysis of peptide mapping of anti-23F heavy chain. Modification with cARM 12 is […]
(1 picture or pasted object on this page, not shown here)

BSA = target: T1, BSA (Bos taurus, UniProt P02769); assay: BLI monitoring of covalent reaction, BSA control; type: binding; details: 10 μM cARM, 230 μM BSA in lieu of IgG
T1 construct: purchased Sigma Aldrich A9576-50ML
Text: (§1) The design of rhamnose-SO2F-cARM was again supported by in-silico docking and predicted to preorganize electrophilic SO2F proximal to lysine 104 and serine 53 of the anti-23F heavy chain as well as tyrosine 32 of the light chain (Figure S3). To evaluate the capacity of rhamnose-SO2F-cARMs to specifically label polyclonal antirhamnose antibodies, a tool cARM with a biotin TBD was synthesized (compound 12, Figure 4A, Scheme S5). As an orthogonal kinetics assay to fluorescent gels, tool compound 12 labeling kinetics was first evaluated using an in-house BLI assay and compared to acyl imidazole cARM and ARM analogs. […] Solutions were immediately loaded onto streptavidin probes (Figure 4B, Figure S8). In this assay, rhamnose competition blocks noncovalent antirhamnose recruitment, thus the signal amplitude is directly proportional to the covalently labeled antibody product.
(§2) Figure 4 Selectivity and kinetic analysis of optimized Rha-SO2F-cARMs A. Chemical structures of tool compounds used in this study. B. cARM 12 (10 μM) was incubated with human IgG or BSA (230 μM) then diluted 8× with 100 mM competitor rhamnose spiked kinetics buffer and loaded onto streptavidin probes in BLI. The association plateau was plotted against time to yield the % labeled vs time covalent labeling curve C. Kinetic fluorescence SDS-PAGE assay similar to that in Figure 2D. […]

[2] = test system: human IgG (polyclonal antirhamnose antibodies); assay: BLI monitoring of covalent reaction with human IgG (Figure 4B); type: binding; details: 10 μM cARM, 230 μM human IgG, up to 25 h
Text: as §1, §2

anti-23F antibody [3] = assay: Kinetic SDS-PAGE fluorescence labelling kinetics; type: binding, human; details: rhamnose and antirhamnose antibody; approximated from KI
Method: Figure 2 Capacity of Rha-cARMs to specifically covalently engage monoclonal anti-23F and serum anti-rhamnose. A. Chemical structures of the molecules investigated. B. Assessment of covalent vs noncovalent (cARM/ARM) engagement of human serum antirhamnose antibody via an ELISA assay. Each ARM/cARM (2 μM) was incubated with 2% human serum for 48 h and subsequently incubated directly on a streptavidin ELISA plate. Recruitment was evaluated by the addition of anti-IgG or anti-IgM HRP-conjugated secondary antibody with subsequent chromogenic substrate addition. “Comp” represents the addition of competitor rhamnose (500 mM) during 48 h of incubation. […] D. Kinetic SDS-PAGE fluorescence imaging experiment to determine Rha-AI-cARM/anti-23F antibody labeling kinetics using A647-cARM (8). cARM 8 (2–100 μM) was incubated with anti-23F antibody (2 μM) for up to 4 h. A representative fluorescence gel image is included corresponding to compound 8 (50 μM) incubated with either anti-23F antibody or isotype human IgG. Densitometry analysis with ImageJ was used to quantify relative band intensities. […] The error is calculated by alternative fits of initial rates data (all within the linear labeling range). […]
Figure 4 Selectivity and kinetic analysis of optimized Rha-SO2F-cARMs A. Chemical structures of tool compounds used in this study. […] Kinetic fluorescence SDS-PAGE assay similar to that in Figure 2D. […]

Compound	site of labelling (LC-MS/MS peptide mapping) (anti-23F antibody [1])	labelling by intact MS (anti-23F antibody [1]; post MS protocol) [%]	loading/labeling with BSA (BSA)	reaction time to plateau of labeled antibody signal [2] [h]	Kd (anti-23F antibody [3]) [µM]
C[C@@H]1O[C@@H](OCCNC(=O)C(CCCCNC(=O)OCCOCCOCCOCCOCCOCCOCCOCCNC(=O)CCCC[C@@H]2SC[C@@H]3NC(=O)N[C@@H]32)NC(=O)c2cccc(S(=O)(=O)F)c2)[C@H](O)[C@H](O)[C@H]1O (some centres unmarked) [compound 12]	only lysine 104 of antibody heavy chain	~30	minimal loading/labeling	≤ 10	–
C[C@H](O)[C@H](O)[C@@H](O)[C@@H](O)C=O [rhamnose, L-rhamnose]	–	–	–	–	~15
